Source: ChEMBL document CHEMBL1201862, “PubChem BioAssay data set” (2004)
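A five-concentration, 48-hour dose response in 96-well plates underlies each endpoint, interpolated linearly between surrounding concentrations. GI50 = concentration required for 50% inhibition of growth.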 Activity calls are given as the source filed them. No stated cut-off is given here; in the data, active = GI50 up to about 1.1 µM and inactive = higher.

Experiments:
Assay in all cases: NCI anticancer screen, dose series, 48 h
DLD-1 = test system: DLD-1
DMS-114 = test system: DMS-114
LXFL 529 = test system: LXFL 529
SNB-78 = test system: SNB-78
M19-MEL = test system: M19-MEL
RXF 631 = test system: RXF 631
DMS-273 = test system: DMS-273
HOP-18 = test system: HOP-18
XF498 = test system: XF498

Structure (SMILES)	GI50 (DLD-1)	GI50 (DMS-114)	GI50 (LXFL 529)	GI50 (SNB-78)	GI50 (M19-MEL)	GI50 (RXF 631)	GI50 (DMS-273)	GI50 (HOP-18)	GI50 (XF498)
O=C(Nc1cccc([N+](=O)[O-])c1)/C(=N\NC(=O)c1ccncc1)c1nc2ccc([N+](=O)[O-])cc2nc1O	> 10 µM (inactive)	13.9 µM (inactive)	35.6 µM (inactive)	> 100 µM (inactive)	–	–	–	–	–
CCN(CC)CCNc1ccc2nnn3c4ccc(C)cc4c(=O)c1c23	6.08 µM (inactive)	9.12 µM (inactive)	12 µM (inactive)	10.9 µM (inactive)	14.6 µM (inactive)	5.28 µM (inactive)	–	–	–
CCCCCCCCCC1CC(=O)OC23CCCC(=O)C12O3 (centres undefined)	98.6 µM (inactive)	71.6 µM (inactive)	> 100 µM (inactive)	60.8 µM (inactive)	> 100 µM (inactive)	–	> 100 µM (inactive)	62.5 µM (inactive)	> 100 µM (inactive)
O=S(=O)(c1ccccc1)C1CN2OC1(S(=O)(=O)c1ccccc1)CC21CCCCC1 (centres undefined)	> 100 µM (inactive)	> 100 µM (inactive)	> 100 µM (inactive)	–	> 100 µM (inactive)	> 100 µM (inactive)	82.6 µM (inactive)	–	32.3 µM (inactive)
Cn1cnnc1Sc1c([N+](=O)[O-])ncn1C	38.5 µM (inactive)	> 100 µM (inactive)	20 µM (inactive)	45.9 µM (inactive)	–	> 100 µM (inactive)	> 100 µM (inactive)	13.5 µM (inactive)	> 100 µM (inactive)
CC1=C2C(=O)C(C)(C)C=C2C(=O)[C@](C)(O)C12CC2 [DEHYDROILLUDIN M]	> 0.791 µM (active)	–	0.698 µM (active)	0.522 µM (active)	> 0.953 µM (active)	–	0.282 µM (active)	> 1 µM (active)	0.664 µM (active)
COc1ccc2c(c1)CCC(OS(=O)(=O)CC13CCC(CC1=O)C3(C)C)C2=O (centres undefined)	31.3 µM (inactive)	27.5 µM (inactive)	29.8 µM (inactive)	–	34.2 µM (inactive)	–	26.4 µM (inactive)	30.1 µM (inactive)	31.2 µM (inactive)
N#CC(C(=O)/C(=N/NC(=O)c1ccccc1O)C(C#N)c1ccc(Cl)cc1)c1ccc(Cl)cc1 (centres undefined)	11.9 µM (inactive)	23.8 µM (inactive)	12.6 µM (inactive)	19.5 µM (inactive)	14.1 µM (inactive)	–	–	11.5 µM (inactive)	13.5 µM (inactive)
N#CC(C(=O)/C(=N\NC(N)=O)C(C#N)c1ccccc1)c1ccccc1 (centres undefined)	> 100 µM (inactive)	–	> 100 µM (inactive)	> 100 µM (inactive)	–	> 100 µM (inactive)	> 100 µM (inactive)	–	–
COc1ccc2c(c1)C1C(CO2)C(c2ccccc2)=NN1c1ccccc1 (centres undefined)	> 100 µM (inactive)	> 100 µM (inactive)	> 100 µM (inactive)	> 100 µM (inactive)	> 100 µM (inactive)	> 100 µM (inactive)	> 100 µM (inactive)	> 100 µM (inactive)	> 100 µM (inactive)
c1ccc(CN(Cn2cccn2)Cn2cccn2)nc1	87.3 µM (inactive)	78.7 µM (inactive)	> 100 µM (inactive)	> 100 µM (inactive)	> 100 µM (inactive)	> 100 µM (inactive)	61.7 µM (inactive)	–	> 100 µM (inactive)
COc1ccccc1NC(=O)CC(=O)n1nc(C)c(/N=N/c2ccccc2F)c1C	> 100 µM (inactive)	> 100 µM (inactive)	> 100 µM (inactive)	17.3 µM (inactive)	> 100 µM (inactive)	–	> 100 µM (inactive)	> 100 µM (inactive)	40 µM (inactive)
